{
  "source": "patent US20140044759A1",
  "about": "“DRUG SUBSTANCES, PHARMACEUTICAL COMPOSITIONS AND METHODS FOR PREPARING THE SAME” (priority 2011, published 2014)",
  "format_in_all_cases": "physicochemical",
  "key": {"[1]": {"test": "Dissolution testing of drug product, USP Dissolution Apparatus 2 (paddle)", "conditions": "45 minutes; drug substance BET SSA 12.06 m^2/g", "protocol": "The resulting drug products were subjected to dissolution testing in a USP Dissolution Apparatus 2 (DISTEK, New Brunswick, N.J.), equipped with a paddle (see United States Pharmacopeia (USP) General Chapter 711 Dissolution). 50 millimoles of phosphate buffer (pH=6.8) containing 0.1% sodium dodecyl sulphate was used. Testing was performed at physiological temperatures (37.0° C.±0.5° C.)."}, "[2]": {"test": "BET specific surface area by nitrogen adsorption (TRISTAR 2000)", "conditions": "for BET specific surface area, effect of slurry composition: external T=18 °C, FIG. 10", "from_the_text": "Through these tests, it was established that drug substance Brunnauer-Emmett-Teller specific surface area (“BET specific surface area” or “BET SSA”) in a particular range is desirable to obtain desirable dissolution properties in the final product. BET specific surface area can be measured by physical adsorption methods known to one of skill in the art. All measurements described herein were made on a TRISTAR 2000 instrument (MICROMERITICS, Norcross, Ga.) using the nitrogen adsorption method, as described in Webb, P. A., “Surface Area, Porosity, and Related Physical Characteristics,” in PHARMACEUTICAL DOSAGE FORMS: TABLETS, VOLUME 3: MANUFACTURE AND PROCESS CONTROL 277-302 (eds. L. Augsburger & S. W. Hoag Informa Healthcare USA Inc. 2008). In the nitrogen absorption method, a tube containing a solid sample is preconditioned at a certain temperature for a predetermined amount of time to remove gases/vapors adsorbed on the surface of the solids. For the examples described herein, the equilibration temperature was 30° C., and the time was 16 hours. The tube is then placed into the instrument and evacuated. After evacuation, the tube is submerged into liquid nitrogen, and a known amount of nitrogen (N2) gas is introduced in the tube by means of a control valve. The N2 gas expands and fills the free volume of the tube. The pressure P of the tube will become equal to nRT/V, where n is the number of N2 gas molecules introduced in the sample tube, R is the universal gas constant, T is the absolute temperature and V is the tube free volume. By repeating the evacuation and filling procedure for different amounts of N2 gas, a BET isotherm curve can be obtained, and the BET specific surface area of the solids can be calculated from the slope of the BET curve, as described in Webb (supra)."}, "[3]": {"test": "Bulk and tap density of drug substance powder (morphology study)", "protocol": "A solution of the product of Example 1, Procedure A2 (608.5 g) dissolved in MTBE (2450 mL) was prepared. The solution was added into the mixing chamber at a rate of 840 mL/min and combined with n-heptane flowing at a rate of 3400 mL/min to form a slurry. The precipitation temperature was controlled at 20° C. After precipitation, one sample was filtered at 20° C. and a second sample was heated to 50° C. at a rate of 1° C./min. The drug substance particle morphology was examined by Scanning Electron Microscopy (SEM); images of the particles are provided as FIGS. 7A and 7B, respectively.\nThe difference in morphology between the two […] samples is readily apparent. The sample filtered at 20° C., shown in FIG. 7A, retained the particle morphology obtained during precipitation. The sample heated to 50° C., shown in FIG. 7B, consists of particles that are fused together; some particles look melted. The particles having different morphologies also had differences in drug substance physical attributes."}, "[4]": {"conditions": "Example 8, equilibration temperature 20 °C (filtered at 20 °C)"}, "[5]": {"conditions": "Example 8, equilibration temperature 50 °C (heated to 50 °C at 1 °C/min)"}, "[6]": {"conditions": "aging process, sample: After 1% of batch distilled"}, "[7]": {"conditions": "aging process, sample: After 2% of batch distilled"}, "[8]": {"conditions": "aging process, sample: After 4% of batch distilled"}, "[9]": {"conditions": "aging process, sample: After 6 hours at aging temperature"}, "[10]": {"conditions": "aging process, sample: After distillation"}, "[11]": {"conditions": "aging process, sample: After precipitation"}, "[12]": {"conditions": "aging process, sample: Final dry cake"}},
  "data": [
    {"smiles": "CC(C)(C)NC(=O)N[C@H](C(=O)N1C[C@H]2[C@@H]([C@H]1C(=O)NC(CC1CCC1)C(=O)C(N)=O)C2(C)C)C(C)(C)C", "note": "(stereo partly drawn) [boceprevir, (1R,5S)—N-[3-amino-1-(cyclobutylmethyl)-2,3-dioxopropyl]-3-[2(S)-[[[(1,1-dimethylethyl)amino]carbonyl]amino]-3,3-dimethyl-1-oxobutyl]-6,6-dimethyl-3-azabicyclo[3.1.0]hexan-2(S)-carboxamide]", "values": [
      {"measurement": "% Dissolved", "setting": "[1]", "result": "did not consistently meet or exceed a 75% dissolution criterion"},
      {"measurement": "BET specific surface area", "setting": "[2]; Example 2, laboratory scale tee mixer, slurry filtered immediately after precipitation and dried", "result": "about 94 m^2/g"},
      {"measurement": "BET specific surface area", "setting": "[2]; Example 6, distillation profile of Table 3", "result": 2.93, "unit": "m^2/g"},
      {"measurement": "BET specific surface area", "setting": "[2]; Example 6, distillation profile of Table 11 (25-27.0 °C)", "result": 2.01, "unit": "m^2/g"},
      {"measurement": "BET specific surface area", "setting": "[2]; Example 7, drug substance used for the high BET SSA study", "result": 12.06, "unit": "m^2/g"},
      {"measurement": "BET specific surface area, powder of FIG. 7A (20 °C) compared to powder of FIG. 7B (50 °C)", "setting": "[2]; Example 8", "result": 10, "unit": "times"},
      {"measurement": "BET SSA", "setting": "[2]; [4]", "result": 19.11, "unit": "m^2/g"},
      {"measurement": "BET SSA", "setting": "[2]; [5]", "result": 1.82, "unit": "m^2/g"},
      {"measurement": "final BET specific surface area as a function of equilibration temperature", "setting": "[2]; Example 9, slurries from -15 °C held at external temperatures of 5 °C and 0 °C, FIG. 8", "result": "lower for the higher equilibration temperature"},
      {"measurement": "changes in BET specific surface area on holding at aging temperature", "setting": "[2]; Example 10, aging temperature 14 °C, after 3 hours of holding, FIG. 6", "result": "very small changes"},
      {"measurement": "BET specific surface area, effect of slurry composition", "setting": "[2]; Example 12, first slurry (low solvent/high anti-solvent)", "result": "higher drug substance BET specific surface area"},
      {"measurement": "BET specific surface area, effect of slurry composition", "setting": "[2]; Example 12, second slurry (high solvent/low anti-solvent)", "result": "lower drug substance BET specific surface area"},
      {"measurement": "bulk and tap density, powder of FIG. 7A (20 °C) compared to powder of FIG. 7B (50 °C)", "setting": "[3]; Example 8", "result": "about 2 times"},
      {"measurement": "Bulk Density", "setting": "[3]; [4]", "result": 0.3087, "unit": "g/mL"},
      {"measurement": "Tap Density", "setting": "[3]; [4]", "result": 0.4062, "unit": "g/mL"},
      {"measurement": "Bulk Density", "setting": "[3]; [5]", "result": 0.1265, "unit": "g/mL"},
      {"measurement": "Tap Density", "setting": "[3]; [5]", "result": 0.1898, "unit": "g/mL"}
    ]},
    {"smiles": "CC(C)(C)NC(=O)N[C@H](C(=O)N1C[C@H]2[C@@H]([C@H]1C(=O)NC(CC1CCC1)C(=O)C(N)=O)C2(C)C)C(C)(C)C", "note": "(stereo partly shown) [Batch 1]", "values": [
      {"measurement": "BET SSA", "setting": "[2]; [6]", "result": 9.18, "unit": "m^2/g"},
      {"measurement": "BET SSA", "setting": "[2]; [7]", "result": 9.13, "unit": "m^2/g"},
      {"measurement": "BET SSA", "setting": "[2]; [8]", "result": 9.05, "unit": "m^2/g"},
      {"measurement": "BET SSA", "setting": "[2]; [9]", "result": 9.60, "unit": "m^2/g"},
      {"measurement": "BET SSA", "setting": "[2]; [10]", "result": 8.88, "unit": "m^2/g"},
      {"measurement": "BET SSA", "setting": "[2]; [11]", "result": 56.70, "unit": "m^2/g"},
      {"measurement": "BET SSA", "setting": "[2]; [12]", "result": 9.30, "unit": "m^2/g"}
    ]},
    {"smiles": "CC(C)(C)NC(=O)N[C@H](C(=O)N1C[C@H]2[C@@H]([C@H]1C(=O)NC(CC1CCC1)C(=O)C(N)=O)C2(C)C)C(C)(C)C", "note": "(stereo partly shown) [Batch 2]", "values": [
      {"measurement": "BET SSA", "setting": "[2]; [6]", "result": 7.14, "unit": "m^2/g"},
      {"measurement": "BET SSA", "setting": "[2]; [7]", "result": 6.90, "unit": "m^2/g"},
      {"measurement": "BET SSA", "setting": "[2]; [8]", "result": 6.88, "unit": "m^2/g"},
      {"measurement": "BET SSA", "setting": "[2]; [9]", "result": 7.36, "unit": "m^2/g"},
      {"measurement": "BET SSA", "setting": "[2]; [10]", "result": 6.92, "unit": "m^2/g"},
      {"measurement": "BET SSA", "setting": "[2]; [11]", "result": 46.94, "unit": "m^2/g"},
      {"measurement": "BET SSA", "setting": "[2]; [12]", "result": 7.61, "unit": "m^2/g"}
    ]}
  ]
}
